± gives the expanded uncertainty stated by the source.
Test: xn = mol fraction of the nth substance listed
Settings: Gas, isochoric method

Q: For C=CC(F)(F)F [1,1,1-trifluoro-2-propene] + CC(C)C, which specific volume (303.15 K, 47.6 kPa, x2 = 0.282) is on record?
A: 0.6134 ± 0.11 m3/kg

Q: And the specific volume (303.15 K, 169.8 kPa, x2 = 0.898)?
A: 0.2302 ± 0.0041 m3/kg

Q: What about the specific volume (308.15 K, 48.4 kPa, x2 = 0.282) of the same compound?
A: 0.6136 ± 0.0091 m3/kg

Q: What about the specific volume (308.15 K, 172.8 kPa, x2 = 0.898) of the same compound?
A: 0.2303 ± 0.0041 m3/kg

Q: What about the specific volume (308.15 K, 192.7 kPa, x2 = 0.434) of the same compound?
A: 0.1611 ± 0.0041 m3/kg

Q: And the specific volume (308.15 K, 289.5 kPa, x2 = 0.225)?
A: 0.0942 ± 0.0093 m3/kg

Q: And the specific volume (313.15 K, 49.2 kPa, x2 = 0.282)?
A: 0.6137 ± 0.0088 m3/kg

Q: And the specific volume (313.15 K, 175.8 kPa, x2 = 0.898)?
A: 0.2303 ± 0.0041 m3/kg

Q: And the specific volume (313.15 K, 196 kPa, x2 = 0.434)?
A: 0.1611 ± 0.004 m3/kg

Q: And the specific volume (313.15 K, 294.8 kPa, x2 = 0.225)?
A: 0.0943 ± 0.0093 m3/kg

Q: What about the specific volume (318.15 K, 50 kPa, x2 = 0.282) of the same compound?
A: 0.6139 ± 0.0085 m3/kg

Q: And the specific volume (318.15 K, 178.7 kPa, x2 = 0.898)?
A: 0.2304 ± 0.0041 m3/kg

Q: And the specific volume (318.15 K, 199.4 kPa, x2 = 0.434)?
A: 0.1611 ± 0.004 m3/kg

Q: What about the specific volume (318.15 K, 300.1 kPa, x2 = 0.225) of the same compound?
A: 0.0943 ± 0.0094 m3/kg

Q: What about the specific volume (323.15 K, 50.8 kPa, x2 = 0.282) of the same compound?
A: 0.614 ± 0.0082 m3/kg

Q: What about the specific volume (323.15 K, 181.7 kPa, x2 = 0.898) of the same compound?
A: 0.2304 ± 0.0041 m3/kg

Q: What about the specific volume (323.15 K, 202.4 kPa, x2 = 0.434) of the same compound?
A: 0.1612 ± 0.0039 m3/kg

Q: What about the specific volume (323.15 K, 305.3 kPa, x2 = 0.225) of the same compound?
A: 0.0943 ± 0.0093 m3/kg

Q: What about the specific volume (328.15 K, 51.6 kPa, x2 = 0.282) of the same compound?
A: 0.6141 ± 0.0079 m3/kg

Q: What about the specific volume (328.15 K, 184.7 kPa, x2 = 0.898) of the same compound?
A: 0.2305 ± 0.0041 m3/kg

Q: What about the specific volume (328.15 K, 205.9 kPa, x2 = 0.434) of the same compound?
A: 0.1612 ± 0.0039 m3/kg

Q: And the specific volume (328.15 K, 310.5 kPa, x2 = 0.225)?
A: 0.0943 ± 0.0093 m3/kg

Q: And the specific volume (333.15 K, 52.4 kPa, x2 = 0.282)?
A: 0.6143 ± 0.0075 m3/kg

Q: What about the specific volume (333.15 K, 187.6 kPa, x2 = 0.898) of the same compound?
A: 0.2305 ± 0.004 m3/kg

Q: And the specific volume (333.15 K, 209.4 kPa, x2 = 0.434)?
A: 0.1613 ± 0.0039 m3/kg

Q: What about the specific volume (333.15 K, 315.8 kPa, x2 = 0.225) of the same compound?
A: 0.0943 ± 0.0094 m3/kg

Q: What about the specific volume (338.15 K, 53.2 kPa, x2 = 0.282) of the same compound?
A: 0.6144 ± 0.0073 m3/kg

Q: And the specific volume (338.15 K, 190.4 kPa, x2 = 0.898)?
A: 0.2306 ± 0.0041 m3/kg

Q: What about the specific volume (338.15 K, 212 kPa, x2 = 0.434) of the same compound?
A: 0.1613 ± 0.0038 m3/kg

Q: What about the specific volume (338.15 K, 320.9 kPa, x2 = 0.225) of the same compound?
A: 0.0944 ± 0.0094 m3/kg

Q: What about the specific volume (343.15 K, 54 kPa, x2 = 0.282) of the same compound?
A: 0.6145 ± 0.007 m3/kg

Q: And the specific volume (343.15 K, 193.4 kPa, x2 = 0.898)?
A: 0.2306 ± 0.0041 m3/kg

Q: And the specific volume (343.15 K, 215.5 kPa, x2 = 0.434)?
A: 0.1613 ± 0.0038 m3/kg

Q: And the specific volume (343.15 K, 326.1 kPa, x2 = 0.225)?
A: 0.0944 ± 0.0094 m3/kg

Q: And the specific volume (348.15 K, 54.8 kPa, x2 = 0.282)?
A: 0.6147 ± 0.0067 m3/kg

Q: What about the specific volume (348.15 K, 196.3 kPa, x2 = 0.898) of the same compound?
A: 0.2307 ± 0.004 m3/kg

Q: And the specific volume (348.15 K, 218.9 kPa, x2 = 0.434)?
A: 0.1614 ± 0.0038 m3/kg

Q: What about the specific volume (348.15 K, 331.3 kPa, x2 = 0.225) of the same compound?
A: 0.0944 ± 0.0094 m3/kg

Q: What about the specific volume (353.15 K, 55.6 kPa, x2 = 0.282) of the same compound?
A: 0.6148 ± 0.0064 m3/kg

Q: What about the specific volume (353.15 K, 199.4 kPa, x2 = 0.898) of the same compound?
A: 0.2307 ± 0.004 m3/kg

Q: And the specific volume (353.15 K, 222.4 kPa, x2 = 0.434)?
A: 0.1614 ± 0.0037 m3/kg

Q: What about the specific volume (353.15 K, 336.5 kPa, x2 = 0.225) of the same compound?
A: 0.0944 ± 0.0094 m3/kg

Q: What about the specific volume (358.15 K, 56.4 kPa, x2 = 0.282) of the same compound?
A: 0.6149 ± 0.0062 m3/kg

Q: What about the specific volume (358.15 K, 202.3 kPa, x2 = 0.898) of the same compound?
A: 0.2308 ± 0.004 m3/kg

Q: And the specific volume (358.15 K, 225 kPa, x2 = 0.434)?
A: 0.1614 ± 0.0037 m3/kg

Q: What about the specific volume (358.15 K, 341.6 kPa, x2 = 0.225) of the same compound?
A: 0.0944 ± 0.0094 m3/kg

Q: What about the specific volume (363.15 K, 57.2 kPa, x2 = 0.282) of the same compound?
A: 0.6151 ± 0.006 m3/kg

Q: What about the specific volume (363.15 K, 205.3 kPa, x2 = 0.898) of the same compound?
A: 0.2308 ± 0.004 m3/kg

Q: And the specific volume (363.15 K, 228.5 kPa, x2 = 0.434)?
A: 0.1615 ± 0.0037 m3/kg

Q: What about the specific volume (363.15 K, 346.8 kPa, x2 = 0.225) of the same compound?
A: 0.0945 ± 0.0094 m3/kg

Q: What about the specific volume (368.15 K, 58.1 kPa, x2 = 0.282) of the same compound?
A: 0.6152 ± 0.0057 m3/kg

Q: And the specific volume (368.15 K, 208.1 kPa, x2 = 0.898)?
A: 0.2309 ± 0.004 m3/kg

Q: What about the specific volume (368.15 K, 231.9 kPa, x2 = 0.434) of the same compound?
A: 0.1615 ± 0.0037 m3/kg

Q: And the specific volume (368.15 K, 351.9 kPa, x2 = 0.225)?
A: 0.0945 ± 0.0094 m3/kg

Q: What about the specific volume (373.15 K, 58.8 kPa, x2 = 0.282) of the same compound?
A: 0.6153 ± 0.0055 m3/kg

Q: And the specific volume (373.15 K, 211.1 kPa, x2 = 0.898)?
A: 0.2309 ± 0.0039 m3/kg

Q: And the specific volume (373.15 K, 235.2 kPa, x2 = 0.434)?
A: 0.1615 ± 0.0037 m3/kg

Q: What about the specific volume (373.15 K, 357.1 kPa, x2 = 0.225) of the same compound?
A: 0.0945 ± 0.0096 m3/kg

Q: What about the specific volume (378.15 K, 59.7 kPa, x2 = 0.282) of the same compound?
A: 0.6155 ± 0.0054 m3/kg

Q: And the specific volume (378.15 K, 213.4 kPa, x2 = 0.898)?
A: 0.231 ± 0.0039 m3/kg

Q: What about the specific volume (378.15 K, 236.9 kPa, x2 = 0.434) of the same compound?
A: 0.1616 ± 0.0036 m3/kg

Q: What about the specific volume (378.15 K, 362.3 kPa, x2 = 0.225) of the same compound?
A: 0.0945 ± 0.0096 m3/kg

Q: What about the specific volume (383.15 K, 60.5 kPa, x2 = 0.282) of the same compound?
A: 0.6156 ± 0.0051 m3/kg

Q: What about the specific volume (383.15 K, 217.1 kPa, x2 = 0.898) of the same compound?
A: 0.231 ± 0.0042 m3/kg

Q: What about the specific volume (383.15 K, 240.1 kPa, x2 = 0.434) of the same compound?
A: 0.1616 ± 0.0036 m3/kg

Q: What about the specific volume (383.15 K, 367.5 kPa, x2 = 0.225) of the same compound?
A: 0.0946 ± 0.0094 m3/kg

Reference: the NIST ThermoML archive (doi:10.1021/acs.jced.8b00921)
